Data set [1] relates to human astroglioma-cell series (HTB-14). As for the experimental part: (§1) FIG. 4 is a graph of MTT reduction as a function of concentration of NFGAIL, SEQ ID NO: 3.
(§2) Suspensions of the peptide aggregate (produced as described as above) were tested by means of a Rat Insulinoma (RIN5 mf) and a human astroglioma-cell series (HTB-14) for toxicity. The newly dissolved peptides were also tested for cytotoxicity.

Another data set deals with Rat Insulinoma (RIN5 mf). On the procedure: as §1, §2
Where [2] appears, read: aggregated form (suspension of peptide aggregate).
Setting [3] is: soluble form (newly dissolved peptide).

Like-named read-outs stand apart in the source and are kept apart here. No end group written: not given here.

With NFGAIL [NFGAIL], the Cytotoxicity entry is given as “cyto-toxic” in data set [1] (setting [2]), “no toxicity” in data set [1] (setting [3]), “cyto-toxic” in the data set with Rat Insulinoma (RIN5 mf) (setting [2]) and “no toxicity” in the data set on Rat Insulinoma (RIN5 mf) (setting [3]).

Source of the values: patent publication US6359112B2 (Fraunhofer-Gesellschaft zur Forferung der angewandten …, priority 1997, dated 2002).
